Measured values reported in patent US9770026B2, “Substituted pyrimidine compound and uses thereof” (Shenyang Sinochem Agrochemicals R&D Co., Ltd., priority 2012, dated 2017).

Columns and labels:
corn rust = assay: protectant activity in vivo against corn rust
armyworm = assay: bioactivity test against armyworm, airbrush spray; assay type: in vivo
carmine spider mite = assay: bioactivity test against carmine spider mite, airbrush spray; assay type: in vivo
Outline: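 Broadbean seedlings infested with adult mites were sprayed with compound (acetone/methanol stock diluted in 0.1% Tween 80 water) by airbrush at 0.7 kg/cm^2, 0.5 ml. Three replicates were run. Mortality was scored after 72 hrs.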

wheat powdery mildew = assay: protectant activity in vivo against wheat powdery mildew
[1] = tested on: Green peach aphids (Myzus Persicae Sulzer); assay: bioactivity test against green peach aphid, airbrush foliar spray; assay type: in vivo
Outline: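 Aphids (15-30 per cabbage leaf disc) on moist filter paper were airbrush-sprayed at 10 psi, 0.5 mL, with compound from acetone:methanol (1:1) diluted in water with 0.1% tween 80. Held at 25±1 C, 60±5% RH; survivors counted after 48 hrs to give death rates.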

Diamond back moth = assay: insecticidal activity against diamond back moth, airbrush spray; assay type: in vivo
Outline: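 Airbrush leaf-disc spray test: both faces of 2 cm cabbage discs received 0.5 ml of test solution at 0.7 kg/cm^2. Solutions were made in acetone:methanol (1:1) and brought to concentration with 0.1% Tween 80 in water. Ten second-instar larvae per disc, triplicates, were held at 25° C and 60˜70% R.H., with mortality recorded at 72 hrs.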

[2] = 100 ppm, mortality after 72 hrs
[3] = 600 ppm, mortality after 72 hrs
[4] = 10 ppm, death rate after 48 hrs
[5] = 100 ppm, death rate after 48 hrs
[6] = 600 ppm, death rate after 48 hrs
[7] = 2.5 ppm, death rate after 48 hrs

## Cc1ncnc(NCCc2ccc(Oc3ccc(C(F)(F)F)cn3)cc2)c1Cl [Compound I-6734]
Corn rust; 100 ppm
  protectant activity against corn rust in vivo: 100%
Corn rust; 400 ppm
  protectant activity against corn rust in vivo: 100%
armyworm; 600 ppm, mortality after 72 h
  control (test results against armyworm): 100%
Carmine spider mite; 2.5 mg/L
  Insecticidal activity against carmine spider mite (% ): 51%
Carmine spider mite; 5 mg/L
  Insecticidal activity against carmine spider mite (% ): 57%
Carmine spider mite; 10 mg/L, contrastive test
  Insecticidal activity against carmine spider mite (% ): 82%
Carmine spider mite; 100 mg/L, contrastive test
  Insecticidal activity against carmine spider mite (% ): 100%
Carmine spider mite; 600 mg/L, contrastive test
  Insecticidal activity against carmine spider mite (% ): 100%
Carmine spider mite; [2]
  control against carmine spider mite: 100%
Carmine spider mite; [3]
  control against carmine spider mite: 100%
Wheat powdery mildew; 400 ppm
  protectant activity against wheat powdery mildew in vivo: 100%
[1]; [4]
  control (test results against green peach aphid): 100%
[1]; [5]
  control (test results against green peach aphid): 100%
[1]; [6]
  control (test results against green peach aphid): 100%
Diamond back moth; [3]
  control (test results against diamond back moth): 100%
Diamond back moth; 72 h, 10 mg/L
  pest or weed control at 10 µg/mL: 40%
Diamond back moth; 72 h, 100 mg/L
  pest or weed control at 100 µg/mL: 52%
Diamond back moth; 72 h, 600 mg/L
  pest or weed control at 600 µg/mL: 100%

## Cc1ncnc(NCCc2ccc(Oc3ccc(C(F)(F)F)cn3)cc2)c1Cl [Compound I-6735]
Corn rust; 100 ppm
  protectant activity against corn rust in vivo: 100%
Corn rust; 400 ppm
  protectant activity against corn rust in vivo: 100%
armyworm; 600 ppm, mortality after 72 h
  control (test results against armyworm): 100%
Carmine spider mite; [2]
  control against carmine spider mite: 100%
Carmine spider mite; [3]
  control against carmine spider mite: 100%
Wheat powdery mildew; 400 ppm
  protectant activity against wheat powdery mildew in vivo: 100%
[1]; 1.25 mg/L, contrastive test
  Insecticidal activity against peach aphid (%): 67%
[1]; 2.5 mg/L, contrastive test
  Insecticidal activity against peach aphid (%): 80%
[1]; 5 mg/L, contrastive test
  Insecticidal activity against peach aphid (%): 100%
[1]; 10 mg/L, contrastive test
  Insecticidal activity against peach aphid (%): 100%
[1]; 100 mg/L, contrastive test
  Insecticidal activity against peach aphid (%): 100%
[1]; 600 mg/L, contrastive test
  Insecticidal activity against peach aphid (%): 100%
[1]; 5 ppm, death rate after 48 hrs
  control (test results against green peach aphid): 100%
[1]; [4]
  control (test results against green peach aphid): 100%
[1]; [5]
  control (test results against green peach aphid): 100%
[1]; [6]
  control (test results against green peach aphid): 100%
Diamond back moth; [3]
  control (test results against diamond back moth): 100%

## CCc1ncnc(NCCc2ccc(Oc3ccc(C(F)(F)F)cn3)cc2)c1Cl.Cl [Compound I-6739]
Corn rust; Zea mays, 168 h, read-out: protectant activity against corn rust in vivo, 100 ppm
  pest or weed control at 100 ppm: 100%
Corn rust; Zea mays, 168 h, read-out: protectant activity against corn rust in vivo, 400 ppm
  pest or weed control at 400 ppm: 100%
armyworm; 100 ppm, mortality after 72 h
  control (test results against armyworm): 100%
armyworm; 72 h, 600 ppm, mortality after 72 h
  pest or weed control at 600 ppm: 100%
Carmine spider mite; 2.5 mg/L
  Insecticidal activity against carmine spider mite (% ): 76%
Carmine spider mite; 5 mg/L
  Insecticidal activity against carmine spider mite (% ): 93%
Carmine spider mite; 10 mg/L, contrastive test
  Insecticidal activity against carmine spider mite (% ): 100%
Carmine spider mite; 100 mg/L, contrastive test
  Insecticidal activity against carmine spider mite (% ): 100%
Carmine spider mite; 600 mg/L, contrastive test
  Insecticidal activity against carmine spider mite (% ): 100%
Carmine spider mite; 10 ppm, mortality after 72 hrs
  control against carmine spider mite: 100%
Carmine spider mite; Tetranychus cinnabarinus, 72 h, 100 ppm, mortality after 72 hrs
  pest or weed control at 100 ppm: 100%
Carmine spider mite; Tetranychus cinnabarinus, 72 h, 600 ppm, mortality after 72 hrs
  pest or weed control at 600 ppm: 100%
Wheat powdery mildew; 25 ppm
  protectant activity against wheat powdery mildew in vivo: 100%
Wheat powdery mildew; Triticum aestivum, 168 h, read-out: protectant activity against wheat powdery mildew in vivo, 6.25 ppm
  pest or weed control at 6.25 ppm: 80 to 99%
Wheat powdery mildew; Triticum aestivum, 168 h, read-out: protectant activity against wheat powdery mildew in vivo, 100 ppm
  pest or weed control at 100 ppm: 100%
Wheat powdery mildew; Triticum aestivum, 168 h, read-out: protectant activity against wheat powdery mildew in vivo, 400 ppm
  pest or weed control at 400 ppm: 100%
[1]; [7]
  control (test results against green peach aphid): 100%
[1]; 5 ppm, death rate after 48 hrs
  control (test results against green peach aphid): 100%
[1]; Myzus persicae, foliar, 48 h, 1.25 mg/L, contrastive test, read-out: Insecticidal activity against peach aphid (%)
  pest or weed control at 1.25 µg/mL: 100%
[1]; Myzus persicae, foliar, 48 h, 2.5 mg/L, contrastive test, read-out: Insecticidal activity against peach aphid (%)
  pest or weed control at 2.5 µg/mL: 100%
[1]; Myzus persicae, foliar, 48 h, 5 mg/L, contrastive test, read-out: Insecticidal activity against peach aphid (%)
  pest or weed control at 5 µg/mL: 100%
[1]; Myzus persicae, foliar, 48 h, 10 mg/L, contrastive test, read-out: Insecticidal activity against peach aphid (%)
  pest or weed control at 10 µg/mL: 100%
[1]; Myzus persicae, foliar, 48 h, 100 mg/L, contrastive test, read-out: Insecticidal activity against peach aphid (%)
  pest or weed control at 100 µg/mL: 100%
[1]; Myzus persicae, foliar, 48 h, 600 mg/L, contrastive test, read-out: Insecticidal activity against peach aphid (%)
  pest or weed control at 600 µg/mL: 100%
[1]; Myzus persicae, foliar, 48 h, 10 ppm, death rate after 48 hrs
  pest or weed control at 10 ppm: 100%
[1]; Myzus persicae, foliar, 48 h, 100 ppm, death rate after 48 hrs
  pest or weed control at 100 ppm: 100%
[1]; Myzus persicae, foliar, 48 h, 600 ppm, death rate after 48 hrs
  pest or weed control at 600 ppm: 100%
Diamond back moth; [2]
  control (test results against diamond back moth): 100%
Diamond back moth; 72 h, 600 ppm, mortality after 72 hrs, read-out: control (test results against diamond back moth)
  pest or weed control at 600 ppm: 100%

## CCc1ncnc(NCCc2ccc(Oc3ccc(C(F)(F)F)cn3)cc2)c1Cl [Compound I-6756]
Corn rust; 100 ppm
  protectant activity against corn rust in vivo: 100%
Corn rust; 400 ppm
  protectant activity against corn rust in vivo: 100%
armyworm; 10 mg/L
  Insecticidal activity against armyworm (%): 28%
armyworm; 100 mg/L
  Insecticidal activity against armyworm (%): 100%
armyworm; 600 mg/L
  Insecticidal activity against armyworm (%): 100%
armyworm; 100 ppm, mortality after 72 h
  control (test results against armyworm): 100%
armyworm; 600 ppm, mortality after 72 h
  control (test results against armyworm): 100%
Carmine spider mite; 2.5 mg/L
  Insecticidal activity against carmine spider mite (% ): 71%
Carmine spider mite; 5 mg/L
  Insecticidal activity against carmine spider mite (% ): 88%
Carmine spider mite; 10 mg/L, contrastive test
  Insecticidal activity against carmine spider mite (% ): 100%
Carmine spider mite; 100 mg/L, contrastive test
  Insecticidal activity against carmine spider mite (% ): 100%
Carmine spider mite; 600 mg/L, contrastive test
  Insecticidal activity against carmine spider mite (% ): 100%
Carmine spider mite; 10 ppm, mortality after 72 hrs
  control against carmine spider mite: 100%
Carmine spider mite; [2]
  control against carmine spider mite: 100%
Carmine spider mite; [3]
  control against carmine spider mite: 100%
Wheat powdery mildew; 100 ppm
  protectant activity against wheat powdery mildew in vivo: 100%
Wheat powdery mildew; 400 ppm
  protectant activity against wheat powdery mildew in vivo: 100%
[1]; 1.25 mg/L, contrastive test
  Insecticidal activity against peach aphid (%): 100%
[1]; 2.5 mg/L, contrastive test
  Insecticidal activity against peach aphid (%): 100%
[1]; 5 mg/L, contrastive test
  Insecticidal activity against peach aphid (%): 100%
[1]; 10 mg/L, contrastive test
  Insecticidal activity against peach aphid (%): 100%
[1]; 100 mg/L, contrastive test
  Insecticidal activity against peach aphid (%): 100%
[1]; 600 mg/L, contrastive test
  Insecticidal activity against peach aphid (%): 100%
[1]; [7]
  control (test results against green peach aphid): 100%
[1]; 5 ppm, death rate after 48 hrs
  control (test results against green peach aphid): 100%
[1]; [4]
  control (test results against green peach aphid): 100%
[1]; [5]
  control (test results against green peach aphid): 100%
[1]; [6]
  control (test results against green peach aphid): 100%
Diamond back moth; [2]
  control (test results against diamond back moth): 100%
Diamond back moth; [3]
  control (test results against diamond back moth): 100%
